Among the data in patent US20230399341A1, “7-PHENYL SUBSTITUTED 2-AMINOQUINAZOLINE INHIBITORS OF HPK1” (MERCK SHARP & DOHME LLC, priority 2020, published 2023) are IC50 values, retold here.

The target in the experiment is T1, Human HPK1, catalytic domain (Homo sapiens, UniProt Q92918).
T1 sequence (Q92918 1-346): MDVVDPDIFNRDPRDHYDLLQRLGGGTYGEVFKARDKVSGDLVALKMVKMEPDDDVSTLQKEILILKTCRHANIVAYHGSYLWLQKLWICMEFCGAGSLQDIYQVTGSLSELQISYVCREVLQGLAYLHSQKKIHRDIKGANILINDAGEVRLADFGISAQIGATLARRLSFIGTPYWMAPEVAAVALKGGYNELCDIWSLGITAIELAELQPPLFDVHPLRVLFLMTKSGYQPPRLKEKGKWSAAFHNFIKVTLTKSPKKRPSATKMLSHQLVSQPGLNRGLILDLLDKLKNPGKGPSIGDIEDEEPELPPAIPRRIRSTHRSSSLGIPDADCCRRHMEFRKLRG
As to the kind of experiment: HPK1-SLP76 TR-FRET Assay. As to conditions: 75 pM HPK1, ATP 10 uM, SLP76 10 nM, 30 min pre-incubation, 60 min reaction. The class given is biochemical. Background: In TR-FRET formats the signal depends on donor and acceptor labels being close together.

SMILES strings stand for the structures.

By IC50 is commonly meant the concentration that gives 50% inhibition. Molecule `C[C@H]1COC(=O)N1c1cc(N)c2cnc(Nc3ccc(CS(C)(=O)=O)cc3)nc2c1` [Compound 3-78, (S)-3-(5-amino-2-((4-((methyl-sulfonyl)methyl)phenyl)amino)-quinazolin-7-yl)-4-methyloxa-zolidin-2-one] had an IC50 of 0.169 nM. That is a sub-nanomolar value.
To `COc1cc2c(cc1Nc1ncc3ccc(-c4cccc(C(C)(C)NC(C)=O)c4)cc3n1)CN(C)CC2` [Compound 1-100, N-[2-(3-{2-[(6-methoxy-2-methyl-1,2,3,4-tetrahydroisoquinolin-7-yl)amino]quinazolin-7-yl}phenyl)propan-2-yl]acetamide] belongs 281 nM.
`CNC(=O)CNc1ccc2cnc(Nc3cc4c(cc3OC)CCN(C)C4)nc2c1` [Compound 3-70, N~2~-{2-[(6-methoxy-2-methyl-1,2,3,4-tetrahydroisoquinolin-7-yl)amino]quinazolin-7-yl}-N-methylglycinamide]: the IC50 stood at 392 nM.
As for `CNC(=O)C1CCc2cc(Nc3ncc4c(N)c(F)c(-c5cnc6c(c5C)NCCO6)cc4n3)ccc21` (stereo not shown) [Compound 2-188, 5-{[5-amino-6-fluoro-7-(8-methyl-2,3-dihydro-1H-pyrido[2,3-b][1,4]oxazin-7-yl)quinazolin-2-yl]amino}-N-methyl-2,3-dihydro-1H-indene-1-carboxamide], the figure is 0.0806 nM; as for `COc1cc2c(cc1Nc1ncc3ccc(N4CC5CCS(=O)(=O)C5C4)cc3n1)CN(C)CC2` (racemic) [Compound 3-60, (±)-5-{2~-[(6-methoxy-2-meth-yl-1,2,3,4-tetrahydroisoquinolin-7-yl)amino]quinazolin-7-yl}-hexahydro-1lambda~6~-thieno-[2,3-c]pyrrole-1,1(2H)-dione], 807 nM; as for `COc1cc2c(cc1Nc1ncc3ccc(-c4cncc(CN)c4)cc3n1)CNCC2` [Compound 1-49, 7-[5-(aminomethyl)pyridin-3-yl]-N-(6-methoxy-1,2,3,4-tetrahydroisoquinolin-7-yl)quinazolin-2-amine], 3.25 nM.
With `CNC(=O)C1(c2ccc(Nc3ncc4c(N)c(F)c(-c5cnc6c(c5C)NCCO6)cc4n3)cc2)CC1` [Compound 2-81, 1-(4-((5-amino-6-fluoro-7-(8-methyl-2,3-dihydro-1H-pyrido[2,3-b][1,4]oxazin-7-yl)quinazolin-2-yl)amino)phenyl)-N-methylcyclopropane-1-carboxamide], the IC50 is 0.0441 nM. Compared with the last molecule, the IC50 is about 74-fold lower.
`COc1cncc(-c2ccc3cnc(Nc4cc5c(cc4OC)CCNC5)nc3c2)c1` [Compound 1-44, 7-(5-methoxypyridin-3-yl)-N-(6-methoxy-1,2,3,4-tetrahydroisoquinolin-7-yl)quinazolin-2-amine] yielded an IC50 of 9.45 nM. Compared with the last molecule, the IC50 is about 210-fold higher.
As to `Cc1c(-c2c(F)c(N)c3cnc(Nc4ccc5c(c4)CN(C(C)C)CC5)nc3c2Cl)cnc2c1NCCO2` [Compound 2-112, 8-chloro-6-fluoro-N2-(2-isopropyl-1,2,3,4-tetrahydroisoquinolin-7-yl)-7-(8-methyl-2,3-dihydro-1H-pyrido[2,3-b][1,4]oxazin-7-yl)quinazoline-2,5-diamine], the midpoint of inhibition, the IC50, lay at 0.816 nM.
For `COc1cc2c(cc1Nc1ncc3c(N)c(F)c(-c4cnc5c(c4C)NCCO5)c(Cl)c3n1)CN(C)CC2` [Compound 2-90, (+ and −)-8-chloro-6-fluoro-N~2~-(6-methoxy-2-methyl-1,2,3,4-tetrahydroisoquinolin-7-yl)-7-(8-methyl-2,3-dihydro-1H-pyrido[2,3-b][1,4]oxazin-7-yl)quinazoline-2,5-diamine], the IC50 came to 0.0355 nM.
Regarding `CCC(=O)Nc1cncc(-c2ccc3cnc(Nc4cc5c(cc4OC)CCNC5)nc3c2)c1` [Compound 1-52, N-(5-{2-[(6-methoxy-1,2,3,4-tetrahydroisoquinolin-7-yl)amino]quinazolin-7-yl}pyridin-3-yl)propanamide], the IC50 came to 11 nM.
In the case of `CNC(=O)C(F)(F)c1ccc(Nc2ncc3c(N)c(F)c(-c4cnc5c(c4C)NCCO5)cc3n2)cc1` [Compound 2-186, 2-(4-{[5-amino-6-fluoro-7-(8-methyl-2,3-dihydro-1H-pyrido[2,3-b][1,4]oxazin-7-yl)quinazolin-2-yl]amino}phenyl)-2,2-difluoro-N-methylacetamide], the IC50 came to 0.136 nM.
With `Cc1c(-c2cc3nc(Nc4ccc5c(c4)CN(CC(C)(C)O)C5=O)ncc3c(N)c2F)cnc2c1NCCO2` [Compound 2-42, 5-{[5-amino-6-fluoro-7-(8-methyl-2,3-dihydro-1H-pyrido[2,3-b][1,4]oxazin-7-yl)quinazolin-2-yl]amino}-2-(2-hydroxy-2-methylpropyl)-2,3-dihydro-1H-isoindol-1-one], the IC50 turned out to be 0.153 nM.
Molecule `COc1cc2c(cc1Nc1ncc3c(N)cc(-c4cnccc4C)cc3n1)CNCC2` [Compound 2-37, N^2-(6-methoxy-1,2,3,4-tetrahydroisoquinolin-7-yl)-7-(4-methylpyridin-3-yl)quinazoline-2,5-diamine] gave an IC50 of 0.372 nM.
As for `COc1cc2c(cc1Nc1ncc3ccc(NC4CC(OC)C4)cc3n1)CN(C)CC2` (stereo not shown) [Compound 3-51, N~7~-(3-methoxycyclobutyl)-N~2~-(6-methoxy-2-methyl-1,2,3,4-tetrahydroisoquinolin-7-yl)quinazoline-2,7-diamine], the figure is 234 nM; as for `Cc1c(-c2cc3nc(Nc4ccc([S+](C)[O-])cc4)ncc3c(N)c2F)cnc2c1NCCO2` (stereo not shown) [Compound 2-170, 6-fluoro-7-(8-methyl-2,3-dihydro-1H-pyrido[2,3-b][1,4]oxazin-7-yl)-N~2~- [4-(methylsulfinyl)phenyl] quinazoline-2,5-diamine], 0.0392 nM; as for `COc1cc2c(cc1Nc1ncc3ccc(-c4cnc(N)nc4C)cc3n1)CN(C)CC2` [Compound 1-19, 7-(2-amino-4-methylpyrimidin-5-yl)-N-(6-methoxy-2-methyl-1,2,3,4-tetrahydroisoquinazolin-7-yl)quinazolin-2-amine], 2.57 nM.
Molecule `CNC(=O)c1ccc(Nc2ncc3c(N)c(F)c(-c4c(Cl)nc5c(c4C)NCCO5)c(Cl)c3n2)c(OC)c1` [Compound 2-98, (+ or −)-4-{[5-amino-8-chloro-7-(6-chloro-8-methyl-2,3-dihydro-1H-pyrido[2,3-b][1,4]oxazin-7-yl)-6-fluoroquinazolin-2-yl]amino}-3-methoxy-N-methylbenzamide] came in with an IC50 of 6.73 nM.
`Cc1c(-c2c(F)c(N)c3cnc(Nc4ccc5c(c4)CN(C)CC5)nc3c2Cl)cnc2c1NCCO2` (single isomer, unassigned) [Compound 2-180, (+ or −)-8-chloro-6-fluoro-7-(8-methyl-2,3-dihydro-1H-pyrido[2,3-b][1,4]oxazin-7-yl)-N~2~- (2-methyl-1,2,3,4-tetrahydroisoquinolin-7-yl)quinazoline-2,5-diamine] displayed an IC50 of 0.0248 nM.
With `C[C@H]1COC(=O)N1c1cc(N)c2cnc(Nc3ccc(S(C)(=O)=O)cc3)nc2c1` [Compound 3-76, (S)-3-(5-amino-2-((4-(methyl-sulfonyl)phenyl)amino)quinaz-olin-7-yl)-4-methyloxazolidin-2-one], the IC50 is 0.101 nM.
As to `CN1CCc2ccc(Nc3ncc4c(N)c(F)c(-c5cnc6c(c5Cl)NCCO6)cc4n3)cc2C1` [Compound 2-160, 7-(8-chloro-2,3-dihydro-1H-pyrido[2,3-b][1,4]oxazin-7-yl)-6-fluoro-N~2~-(2-methyl-1,2,3,4-tetrahydroisoquinolin-7-yl)quinazoline-2,5-diamine], the IC50 is 0.0326 nM.
`Cc1c(-c2cc3nc(Nc4ccc5c(c4)C4CC5CN4C)ncc3c(N)c2F)cnc2c1NCCO2` (racemic) [Compound 2-79, (R,S and S,R)-6-fluoro-N2-(2-methyl-1,2,3,4-tetrahydro-1,4-methanoisoquinolin-7-yl)-7-(8-methyl-2,3-dihydro-1H-pyrido[2,3-b][1,4]oxazin-7-yl)quinazoline-2,5-diamine] came in with an IC50 of 0.0305 nM. This IC50 and that of the molecule before are within 1.5-fold of each other.
As to `COc1cc2c(cc1Nc1ncc3ccc(-c4cccc(N5CCOCC5)c4)cc3n1)CNCC2` [Compound 1-91, N-(6-methoxy-1,2,3,4-tetrahydroisoquinolin-7-yl)-7-[3-(morpholin-4-yl)phenyl]quinazolin-2-amine], the IC50 was 210 nM. Against the preceding molecule, the IC50 is about 6900-fold higher.
Molecule `COc1cc2c(cc1Nc1ncc3ccc(-c4cncc5cccnc45)cc3n1)CN(C)CC2` [Compound 1-24, N-(6-methoxy-2-methyl-1,2,3,4-tetrahydroisoquinolin-7-yl)-7-(1,6-naphthyridin-8-yl)quinazolin-2-amine] showed an IC50 of 10.5 nM.
Regarding `COc1cc2c(cc1Nc1ncc3ccc(N4C(=O)OCC4(C)C)cc3n1)CN(C)CC2` [Compound 3-6, 3-{2-[(6-methoxy-2-methyl-1,2,3,4-tetrahydroisoquinolin-7-yl)amino]quinazolin-7-yl}-4,4-dimethyl-1,3-oxazolidin-2-one], the IC50 is 45.2 nM. This IC50 is about 4.3-fold higher than that of the molecule before.
On to `COc1cc2c(cc1Nc1ncc3ccc(Nc4cc(S(C)(=O)=O)ccc4F)cc3n1)CN(C)CC2` [Compound 3-36, N~7~-[2-fluoro-5-(methyl-sulfonyl)phenyl]-N~2~-(6-methoxy-2-methyl-1,2,3,4-tetra-hydroisoquinolin-7-yl)quinaz-oline-2,7-diamine], for which the IC50 came to 4.17 nM. Against the preceding molecule, the IC50 is about 11-fold lower.
Consider `COc1ccncc1Nc1ncc2c(N)c(F)c(-c3cnc4c(c3C)NCCO4)cc2n1` [Compound 2-20, 6-fluoro-N~2~-(4-methoxypyridin-3-yl)-7-(8-methyl-2,3-dihydro-1H-pyrido[2,3-b][1,4]oxazin-7-yl)quinazoline-2,5-diamine], for which the IC50 was 76.1 nM.
Take `CNC(=O)c1ccc(Nc2ncc3c(N)c(F)c(-c4cnc5c(c4C)NCCO5)cc3n2)c(OC)c1` [Compound 2-74, 4-{[5-amino-6-fluoro-7-(8-methyl-2,3-dihydro-1H-pyrido[2,3-b][1,4]oxazin-7-yl)quinazolin-2-yl]amino}-3-methoxy-N-methylbenzamide]: 0.266 nM corresponded to half-maximal inhibition (IC50).
